PubChem BioAssay AID488878 (Sanford-Burnham Center for Chemical Genomics, 2010)
Active and inactive are the calls of the source. The rule behind the calls is not given here.

Target: Alkaline phosphatase, placental type (Homo sapiens) (UniProt P05187)
Test: PLAP enzyme activators, dose response, mouse IAP activator project, biochemical, uHTS hits (AID 488878)
Conditions: purified human PLAP enzyme activity

In the case of `COc1cccc(CNC(=O)CCNS(=O)(=O)c2ccc3[nH]c(=O)oc3c2)c1`, the EC50 is reported as > 100 µM (inactive).
`O=C(N/N=C/c1ccc(O)c(O)c1)N/N=C/c1ccc(O)c(O)c1` showed an EC50 of 29.6 µM.
In the case of `O=C1CC(c2ccc(O)c(O)c2)Oc2cc(O)cc(O)c21` (stereo unspecified), the EC50 is reported as 60.3 µM.
For `CNc1nnc(-c2cc3ccccc3oc2=O)s1`, the EC50 was > 100 µM (inactive).
`CC1CC(=O)c2c(cc3c(-c4c(O)cc(O)c5c(O)c6c(cc45)OC(C)CC6=O)c(O)cc(O)c3c2O)O1` (stereo unspecified) was tested, and the EC50 was 21.1 µM.
`Cc1c(CN2CCC(C(=O)Nc3cccc(-c4cccc(Cl)c4)c3)CC2)cnn1C` gave an EC50 of 71.6 µM.
With `NS(=O)(=O)c1ccc(-c2ccc(/C=C3\SC(=S)N(C4CCS(=O)(=O)C4)C3=O)o2)cc1` (stereo unspecified) the EC50 was 17.6 µM.
For `O=C(O)C(c1ccccc1)N1C(=O)/C(=C\c2ccc(O)c(O)c2)SC1=S` (stereo unspecified), the EC50 was 62.9 µM.
With `O=C1C=C(O)c2c(O)cc(O)c(O)c2C1=O` the EC50 was > 100 µM (inactive).
With `Cc1ccc(N2C(=O)/C(=C/c3ccc(CN(CCC#N)S(C)(=O)=O)o3)C(=O)NC2=S)cc1` the EC50 was 40.7 µM.
Work on `O=C(CCCN1C(=O)/C(=C\c2ccco2)SC1=S)Nc1ccc(O)cc1C(=O)O` yielded an EC50 of 44.7 µM.
`COc1cc(OC)c(NC(=O)CN(C)S(=O)(=O)c2ccc3[nH]c(=O)oc3c2)cc1Cl` showed an EC50 of 69.8 µM.
`O=C(CSc1n[nH]c(-c2ccccc2)n1)c1ccc(O)c(O)c1` was tested, and the EC50 was 65.3 µM.
In the case of `O=c1[nH]c(/C=C\c2ccc(O)c(O)c2)nc(O)c1[N+](=O)[O-]`, the EC50 is reported as > 100 µM (inactive).
`O=C(Nc1ccc(Cl)c(C(F)(F)F)c1)NC1CC2CCCC(C1)N2Cc1ccccc1` (stereo unspecified) was tested, and the EC50 was > 100 µM (inactive).
For `COc1ccc(S(=O)(=O)Nc2ccc(O)c(Sc3ncn[nH]3)c2)cc1`, the EC50 was 68.6 µM.
`O=C(CN1C(=O)/C(=C/c2ccco2)SC1=S)NC1CCS(=O)(=O)C1` (stereo unspecified) was tested, and the EC50 was > 100 µM (inactive).
With `COc1ccc(OC)c(NC(=O)CCNS(=O)(=O)c2ccc3[nH]c(=O)oc3c2)c1` the EC50 was > 100 µM (inactive).
`CN(CC(=O)Nc1cccc(Cl)c1)S(=O)(=O)c1ccc2[nH]c(=O)oc2c1` was tested, and the EC50 was > 100 µM (inactive).
In the case of `O=C(CSc1nc2ccccc2o1)N/N=C/c1ccc(O)c(O)c1`, the EC50 is reported as 67.5 µM.
Work on `CCN1/C(=C/C=C/c2oc3ccc(-c4ccccc4)cc3[n+]2CC)Oc2ccc(-c3ccccc3)cc21` yielded an EC50 of 24.5 µM.
For `CC(C(=O)Nc1ccc(C(=O)O)c(O)c1)N1C(=O)/C(=C\c2ccco2)SC1=S` (stereo unspecified), the EC50 was 76.8 µM.
`C=CCn1c(SCC(=O)c2ccc(O)c(O)c2)nnc1-c1cccc(OC)c1` showed an EC50 of 47.8 µM.
With `CC1(C(=O)NNC(=O)c2ccc(=O)oc2)CC1Br` (stereo unspecified) the EC50 was 57.9 µM.
`CCn1nc(C)c(CN2CCC(C(=O)Nc3cccc(-c4cccc(F)c4)c3)CC2)c1C` showed an EC50 of 65.1 µM.
`Cc1ccc(NC(=O)CN(C)S(=O)(=O)c2ccc3[nH]c(=O)oc3c2)c(C)c1` was tested, and the EC50 was 64.6 µM.
With `Cc1ccc(NC(=O)CCNS(=O)(=O)c2ccc3[nH]c(=O)oc3c2)cc1F` the EC50 was > 100 µM (inactive).
In the case of `O=C(Cc1nnc(NC(=O)c2ccccc2)s1)N/N=C\c1ccc(O)c(O)c1`, the EC50 is reported as > 100 µM (inactive).
In the case of `Cc1ccc(C)c(NC(=O)CCNS(=O)(=O)c2ccc3[nH]c(=O)oc3c2)c1`, the EC50 is reported as > 100 µM (inactive).
`Oc1ccc(-c2cn3c(n2)SCC3)cc1O` was tested, and the EC50 was 55.6 µM.
For `O=C(/C=C/c1ccco1)NC(=S)Nc1cccc(C(=O)O)c1`, the EC50 was 46.8 µM.
`O=C(O)CC(C(=O)O)N1C(=O)/C(=C/c2ccc(-c3nc4ccccc4s3)o2)SC1=S` (stereo unspecified) showed an EC50 of 60.8 µM.
`Cc1ccc(C(=O)Nc2nnc(CC(=O)N/N=C/c3ccc(O)c(O)c3)s2)cc1` was tested, and the EC50 was 49.7 µM.
`O=C(N/N=C/c1cn(Cc2cccc(F)c2)c2ccccc12)c1cc(O)cc(O)c1` gave an EC50 of 53.3 µM.
In the case of `O=C(N/N=C/c1ccc(O)cc1O)C(=O)N/N=C/c1ccc(O)cc1O`, the EC50 is reported as > 100 µM (inactive).
For `COc1cc(/C=C(\C#N)C(=O)c2ccc(O)c(O)c2)cc(I)c1O`, the EC50 was > 100 µM (inactive).
Molecule `O=C(COC(=O)c1ccc(Br)o1)Nc1ncc([N+](=O)[O-])s1` has an EC50 of 60.5 µM.
In the case of `N#Cc1cccc(NC(=O)CCNS(=O)(=O)c2ccc3[nH]c(=O)oc3c2)c1`, the EC50 is reported as 89.7 µM.
Work on `Cc1cc(C)c(S(=O)(=O)Nc2ccc(O)c(Sc3ncn[nH]3)c2)cc1C` yielded an EC50 of 55 µM.
Molecule `CCOC(=O)C(C)Sc1nc2c(c(=O)[nH]c(=O)n2C)n1C/C=C(/C)Cl` (stereo unspecified) has an EC50 of 84.8 µM.
`O=[N+]([O-])c1cc(S(=O)(=O)c2ccc(O)c([N+](=O)[O-])c2)ccc1O` was tested, and the EC50 was > 100 µM (inactive).
Molecule `Cc1ccc(C)c(S(=O)(=O)Nc2ccc(O)c(Sc3ncn[nH]3)c2)c1` has an EC50 of 13.1 µM.
`Cc1cc(/C=C2\SC(=S)NC2=O)c(C)[nH]1` showed an EC50 of 61.1 µM.
`NS(=O)(=O)c1cc(C(=O)NC2CCSc3ccccc32)ccc1Cl` (stereo unspecified) was tested, and the EC50 was 63.9 µM.
`CCOC(=O)CN1C(=O)/C(=C2\SC(=S)N(NC(=O)c3cccnc3)C2=O)c2ccccc21` showed an EC50 of 35.1 µM.
In the case of `COc1ccc(NC(=O)CCNS(=O)(=O)c2ccc3[nH]c(=O)oc3c2)cc1Cl`, the EC50 is reported as 54 µM.
